Results as given in patent US20260070945A1, “MACROCYCLIC IMMUNOMODULATORS” (Bristol-Myers Squibb Company, priority 2022, published 2026).
Where a SMILES comes first, the peptide text is derived from it. Bridges are numbered along the chain shown (N, C = ends). [ ]: non-standard residue; d: D form. The star is where a group is joined. Phe(3-CF3) = N[C@@H](Cc1cccc(C(F)(F)F)c1)C(=O)O; Bip = N[C@@H](Cc1ccc(-c2ccccc2)cc1)C(=O)O; NH(CH2)14COOH = O=C(O)CCCCCCCCCCCCCCN*; NH(CH2)12COOH = O=C(O)CCCCCCCCCCCCN*; Val(3-OH) = CC(C)(O)[C@H](N)C(=O)O; Cha = N[C@@H](CC1CCCCC1)C(=O)O; Cit = NC(=O)NCCC[C@H](N)C(=O)O; Carboxymethyl = O=C(O)C*; NMeA = CN[C@@H](C)C(=O)O; Dab = NCC[C@H](N)C(=O)O

Each compound was assayed against T1, PD-1/PD-L1 interaction (PE-labeled human PD-L1-Ig binding to Jurkat cell line over-expressing human PD-1) (Homo sapiens, UniProt Q15116) (assay: Jurkat-PD-1 Cell Binding High-Content Screening Assay (CBA)). Conditions: PE-labeled PD-L1-Ig 20 nM final, Jurkat-hPD-1 cells; read-out: Jurkat HPD1 PDL1 IC50.
T1 construct: expressed in transfected cells; host or cells: Jurkat
T1 sequence (Q15116 25-288): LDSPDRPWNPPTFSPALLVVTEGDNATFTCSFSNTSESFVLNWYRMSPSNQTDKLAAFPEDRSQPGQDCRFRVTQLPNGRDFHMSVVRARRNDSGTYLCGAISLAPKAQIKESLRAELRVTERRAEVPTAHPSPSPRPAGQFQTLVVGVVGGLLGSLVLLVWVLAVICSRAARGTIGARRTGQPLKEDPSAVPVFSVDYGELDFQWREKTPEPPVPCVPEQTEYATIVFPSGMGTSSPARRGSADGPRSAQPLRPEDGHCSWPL
How it was run: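 In this imaging assay, cells in 10% FCS medium see compound for 2 h at 37 °C and then labeled ligand at 20 nM final for 1 h. Paraformaldehyde fixation, Hoechst 33342 staining and dPBS washes precede image capture.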

| SMILES | IC50 [nM] |
| --- | --- |
| CC(=O)NCCCC[C@@H]1NC(=O)[C@H](C(C)(C)O)NC(=O)[C@H](CC2CCCCC2)NC(=O)[C@H](CCN)NC(=O)[C@@H](CC(C)C)NC(=O)[C@H](C)N(C)C(=O)[C@H](CCCNC(N)=O)NC(=O)[C@H](Cc2ccc(-c3ccccc3)cc2)NC(=O)[C@H](Cc2ccc(OCC(=O)O)cc2)NC(=O)[C@H](Cc2cccc(C(F)(F)F)c2)NC(=O)[C@H](CC(=O)O)NC(=O)[C@H](Cc2ccc(OCC(=O)O)cc2)NC(=O)[C@H](CCN)NC(=O)CSC[C@@H](C(=O)N[C@@H](CCN)C(=O)NCCCCCCCCCCCCCCC(=O)O)NC1=O [Example 2623] ({CH2CO}-[Dab]Y(Carboxymethyl)D[Phe(3-CF3)]Y(Carboxymethyl)[Bip][Cit][NMeA][dL][Dab][Cha][Val(3-OH)]K(Ac)C[Dab]-{NH(CH2)14COOH}; thioether N-14) | 99.4 |
| CC(=O)NCCCC[C@@H]1NC(=O)[C@H](C(C)(C)O)NC(=O)[C@H](CC2CCCCC2)NC(=O)[C@H](CCN)NC(=O)[C@@H](CC(C)C)NC(=O)[C@H](C)N(C)C(=O)[C@H](CCCNC(N)=O)NC(=O)[C@H](Cc2ccc(-c3ccccc3)cc2)NC(=O)[C@H](Cc2ccc(OCC(=O)O)cc2)NC(=O)[C@H](Cc2cccc(C(F)(F)F)c2)NC(=O)[C@H](CC(=O)O)NC(=O)[C@H](Cc2ccc(OCC(=O)O)cc2)NC(=O)[C@H](Cc2ccc(OCC(=O)O)cc2)NC(=O)CSC[C@@H](C(=O)N[C@@H](CCN)C(=O)NCCCCCCCCCCCCCCC(=O)O)NC1=O [Example 2624] ({CH2CO}-Y(Carboxymethyl)Y(Carboxymethyl)D[Phe(3-CF3)]Y(Carboxymethyl)[Bip][Cit][NMeA][dL][Dab][Cha][Val(3-OH)]K(Ac)C[Dab]-{NH(CH2)14COOH}; thioether N-14) | 77 |
| CC(C)C[C@H]1NC(=O)[C@H](C)N(C)C(=O)[C@H](CCCNC(N)=O)NC(=O)[C@H](Cc2ccc(-c3ccccc3)cc2)NC(=O)[C@H](Cc2ccc(OCC(=O)O)cc2)NC(=O)[C@H](Cc2cccc(C(F)(F)F)c2)NC(=O)[C@H](CC(=O)O)NC(=O)[C@H](Cc2ccc(OCC(=O)O)cc2)NC(=O)[C@H](Cc2ccc(OCC(=O)O)cc2)NC(=O)CSC[C@@H](C(=O)N[C@@H](CCN)C(=O)NCCCCCCCCCCCCCCC(=O)O)NC(=O)[C@H](CCC(=O)O)NC(=O)[C@H](C(C)(C)O)NC(=O)[C@H](CC2CCCCC2)NC(=O)[C@H](CCN)NC1=O [Example 2625] ({CH2CO}-Y(Carboxymethyl)Y(Carboxymethyl)D[Phe(3-CF3)]Y(Carboxymethyl)[Bip][Cit][NMeA][dL][Dab][Cha][Val(3-OH)]EC[Dab]-{NH(CH2)14COOH}; thioether N-14) | 190 |
| CC(=O)NCCCC[C@@H]1NC(=O)[C@H](C(C)(C)O)NC(=O)[C@H](CC2CCCCC2)NC(=O)[C@H](CCN)NC(=O)[C@@H](CC(C)C)NC(=O)[C@H](C)N(C)C(=O)[C@H](CCC(N)=O)NC(=O)[C@H](Cc2ccc(-c3ccccc3)cc2)NC(=O)[C@H](Cc2ccc(OCC(=O)O)cc2)NC(=O)[C@H](Cc2cccc(C(F)(F)F)c2)NC(=O)[C@H](CC(=O)O)NC(=O)[C@H](Cc2ccc(OCC(=O)O)cc2)NC(=O)[C@H](CC(C)C)NC(=O)CSC[C@@H](C(=O)N[C@@H](CCN)C(=O)NCCCCCCCCCCCCC(=O)O)NC1=O [Example 2626] ({CH2CO}-LY(Carboxymethyl)D[Phe(3-CF3)]Y(Carboxymethyl)[Bip]Q[NMeA][dL][Dab][Cha][Val(3-OH)]K(Ac)C[Dab]-{NH(CH2)12COOH}; thioether N-14) | 9 |
